Columns and labels:
H9 cells [1] = experiment: Rho kinase inhibitor concentration for attachment and growth of H9 cells on micro-carriers; format: cell-based, human; conditions: H9 passage 44, MEF-CM, rocking platform
Method: A starting aliquot of 13,333 cells/cm^2 H9 cells at passage 44 was seeded onto 15 cm^2 of micro-carriers in a single well of a 12 well non-tissue culture treated plate. The cells were placed at 37° C. for at least 60 minutes before placing them onto a rocking platform at 37° C. Prior to adding the cells, HILLEX®II (Solohill, MI) and Cytodex 3® (GE Healthcare Life Sciences, NJ) micro-carriers were prepared as directed by the manufacturer. Cells were grown in MEF-CM plus a range of Rho kinase inhibitor concentrations, Y27632 at 10, 5, 2.5 or 1 μM, or (S)-(+)-4-Glycyl-2-methyl-1-[(4-methyl-5-isoquinolinyl)sulfonyl]-hexahydro-1H-1,4-diazepine dihydrochloride (Glycyl-H 1152 dihydrochloride (H), Tocris, MO) at 5, 2.5, 1 or 0.5 μM). The medium was changed daily and one well of cells was counted at 4 and 7 days after seeding for yield and viability (FIGS. 7, A and B).

H1 cells [2] = experiment: Dose titration of Rho kinase inhibitor, H1 cells on micro-carriers; format: cell-based, human
Method: Next a dose titration of the Rho kinase inhibitor was attempted since it has been characterized as a […]. H1 cells at passage 48 were dissociated from MATRIGEL™ (BD Biosciences, CA) coated plates with TrypLE™ Express. The cells were then seeded onto 15 cm^2 of micro-carriers into a single well of a 12 well non-tissue culture treated plate. HILLEX®II (Solohill, MI), Cytodex 1®, or Cytodex 3® (GE Healthcare Life Sciences, NJ) micro-carriers were tested with decreasing amounts of Rho kinase inhibitor: 10 μM Y27632 (Sigma-Aldrich, MO) was used on day one followed by […] on day two (Y10/5 μM); 2.5 μM Glycyl-H 1152 dihydrochloride (Tocris, MO) was used on day one followed by 0.5 μM on day two (H2.5/0.5 μM); 1 μM Glycyl-H 1152 dihydrochloride (Tocris, MO) was used on day one followed by 0.5 μM Glycyl-H 1152 dihydrochloride (Tocris, MO) on day two (H1/0.5 μM); or continuous addition of 0.25 μM Glycyl-H 1152 dihydrochloride (Tocris, MO) was applied daily in MEF-CM (H0.25 μM). H1 cells and micro-carriers were agitated every 45 minutes for 3 hours at 37° C. before being placed on a rocking platform at 37° C. Cells were counted after 3, 5 and 7 days on the rocking platform at 37° C. (FIG. 8). Overall the best concentration of Glycyl-H 1152 dihydrochloride (Tocris, MO) was 1-2.5 μM on day one and 0.5 μM on day 2 followed by withdrawal of the compound. […] Using a minimal amount of Rho-kinase inhibitor also helps reduce costs for the process and maybe beneficial to cell proliferation.

H9 cells [3] = experiment: Proliferation of H9 cells on micro-carriers in defined medium; format: cell-based, human; conditions: H9 p64, StemPro, 2.5 μM, on Cytodex 3 micro-carriers
Description: To manufacture a therapeutic product, it is desirable to remove any animal components from the human embryonic stem cell culture medium. Currently human embryonic stem cells are maintained on MATRIGEL™ (BD Biosciences, CA) in medium conditioned using mouse embryonic fibroblasts (MEF-CM). Both MATRIGEL™ (BD Biosciences, CA) and MEF-CM are derived from mouse cells. Additionally, MEF-CM is an expensive and time-consuming medium to generate. To determine if human embryonic stem cells can be sustained on micro-carriers with defined medium, H9 cells were seeded onto Cytodex 3® (GE Healthcare Life Sciences, NJ) and HILLEX®II (Solohill, MI) micro-carriers in the presence of Rho kinase inhibitors, 10 μM Y27632 (Sigma-Aldrich, MO) or 2.5 μM Glycyl-H 1152 dihydrochloride (Tocris, MO) in Stem Pro (Invitrogen, CA), mTESR (StemCell Technologies, Vancouver, Canada) or MEF-CM. The cells were placed in a 12 well dish on a rocking platform at 37° C. The cells were counted at days 3, 5 and 7. […] Therefore the micro-carrier type, Rho kinase inhibitor, and medium all play a role in determining the ability of human embryonic stem cells to proliferate.

H1 cells [4] = experiment: Proliferation of H1 cells on micro-carriers in defined medium; format: cell-based, human; conditions: H1 passage 38, MEF-CM
Method: H1 human embryonic stem cells at passage 38 were seeded onto either Cytodex 3® or HILLEX®II micro-carriers in the presence of Rho kinase inhibitors, 10 μM Y27632 (Sigma-Aldrich, MO) or 2.5 μM Glycyl-H 1152 dihydrochloride in mTESR (StemCell Technologies, Vancouver, Canada) or MEF-CM in a 12 well dish. The cells were placed on a rocking platform at 37° C. The cells were counted at days 3, 5 and 7.
Cells were incubated at 37° C. in a 10 cm^2 dish for 5 hours with agitation by hand every 45 minutes. mTESR (StemCell Technologies, Vancouver, Canada) plus 10 μM Y27632 (Sigma-Aldrich, MO) was changed every other day. This was conducted in parallel with cells grown in MEF-CM (Example 5).

[5] = tested on: H1 human embryonic stem cells; experiment: Single cell passage of H1 cells from fibroblast feeders to PRIMARIA; format: cell-based; conditions: feeder free/matrix free culture on PRIMARIA, greater than 8 passages
Method: Method: Cells were routinely passaged by aspirating media, washing with PBS, and then treating the cells with a dissociation enzyme (collagenase, Accutase™, or TrypLE). Collagenase was used at 1 mg/ml concentration; Accutase™ or TrypLE were used at 1× stock concentration. All enzymes were used after reaching room temperature. A solution of 2% BSA in DMEM/F12 was added to each well and cells were uniformly suspended in the solution after treating the cells with enzyme. Cells were then centrifuged for 5 minutes at 200 g, the cell pellet and additional 2% BSA in DMEM/F12 solution was added to resuspend cells and the cell suspension was distributed to three 50 ml sterile conical tubes and centrifuged for 5 min at 200 g.
Using a sequential method, the fibroblast feeders were removed by high density passaging the cluster/colony style human embryonic stem cells to a Primaria surface by treating the MEF based culture with either Accutase™, TrypLE™, or collagenase. […] Cell number for cells lifted with TrypLE™ or Accutase™ was determined by counting trypan blue stained cells with a hemocytometer. […]
2nd passage: Cells were passaged at a ratio of 1 to 4 using a 10 minutes exposure to TrypLE™ or Accutase™. A shorter enzyme exposure time, which was determined empirically by treating the cells and monitoring for detachment, was also introduced. […]

H1 and H9 cells = experiment: Attachment of H1 and H9 cells to micro-carrier beads in MEF-CM with 10 μM Y27632; format: cell-based, human; conditions: 10 μM in MEF-CM, static culture
Method: To improve the attachment and proliferation of human embryonic stem cells on micro-carriers, a small molecule inhibitor of Rho-associated coiled coil forming protein serine/threonine kinase, Rho kinase inhibitor was added to the media. Specifically, Y27632, Y, (Sigma-Aldrich, MO) was used. MEF-CM plus 10 μM Y27632 (Sigma-Aldrich, MO) was changed daily. […] By analysis of images, human embryonic stem cells grown on HILLEX®II micro-carriers (Solohill, MI) appeared to attach and proliferate better than human embryonic stem cells on other micro-carriers tested. Additionally, H9 cells attached better to HILLEX®II (Solohill, MI) in the presence of the Rho kinase inhibitor (FIG. 1A compared to 1B).
The H1 human embryonic cell line was also tested for growth on micro-carriers for large-scale expansion. Because a Rho kinase inhibitor, Y27632 (Sigma-Aldrich, MO), was necessary for attachment of the H9 cell line, it was also assumed to be necessary for H1 cells. Cytodex 1®, Cytodex 3® (GE Healthcare Life Sciences, NJ), HILLEX®II, Plastic, ProNectinF, Plastic Plus micro-carriers (SoloHill Ann Arbor, MI) were prepared according to the manufacturer's instructions. […] After 3, 5 and 7 days, one well was imaged, harvested, and counted. […] Cells were detached according to Example 4 and counted for yield.

SMILES	concentration with the best attachment (day 4) (H9 cells [1]) [µM]	best concentration on day one (H1 cells [2]; H1 passage 48, MEF-CM, HILLEX II, Cytodex 1 or Cytodex 3) [µM]	best concentration on day 2 (H1 cells [2]; H1 passage 48, followed by withdrawal of the compound) [µM]	cell yield (H1 cells [2]; cells maintained in 0.25 μM continuously)	proliferation (H9 cells [3])	growth (H1 cells [4]; 2.5 μM, on Cytodex 3)	pluripotency and differentiation capacity of culture [5]	attachment of H9 cells to micro-carriers (H1 and H9 cells)	effect of removal of the inhibitor on attachment (H1 cells [2]; H1 cells on micro-carriers)	expansion (H1 cells [4]; both micro-carrier types, 10 μM)
Cc1cncc2cccc(S(=O)(=O)N3CCCN(C(=O)CN)C[C@@H]3C)c12.Cl.Cl [Glycyl-H 1152 dihydrochloride, (S)-(+)-4-Glycyl-2-methyl-1-[(4-methyl-5-isoquinolinyl)sulfonyl]-hexahydro-1H-1,4-diazepine dihydrochloride]	5	1 to 2.5	0.5	poor cell yield	did not proliferate well	poor growth	retains pluripotency and the ability to differentiate to definitive endoderm	–	–	–
C[C@@H](N)[C@H]1CC[C@H](C(=O)Nc2ccncc2)CC1 [Y27632]	–	–	–	–	–	–	–	attached and formed aggregates with all micro-carriers tested	did not cause the H1 cells to dissociate	typical expansion characteristics

From patent US9969972B2, “Pluripotent stem cell culture on micro-carriers” (Janssen Biotech, Inc., priority 2008, dated 2018)
